From patent US9636418B2 (priority 2013, dated 2017)
Read-outs that look alike come from different tables or passages of the source.

Experiments:
Assay in all cases: cell-based
hNav1.4 [1] = biological target: T1, hNav1.4 (Homo sapiens, UniProt P35499); settings: ratio of IonWorks Quattro IC50 values
hNav1.7 [2] = biological target: T2, hNav1.7 (Homo sapiens, UniProt Q15858); settings: IonWorks Quattro; read-out: IC50 Nav1.7
hNav1.5 = hNav1.5 (Homo sapiens, UniProt Q14524); settings: for IC50: PatchXpress, tonic block, read-out: PX hNav1.5 Tonic IC50; for Nav1.5/Nav1.7: ratio of PX tonic IC50 values
hNav1.7 [3] = biological target: T2, hNav1.7; format: cell-based; settings: PatchXpress, tonic block; read-out: PX hNav1.7 Tonic IC50
hNav1.4 [4] = biological target: T1, hNav1.4; settings: for IC50: PatchXpress, tonic block, read-out: PX hNav1.4 Tonic IC50; for Nav1.4/Nav1.7: ratio of PX tonic IC50 values

T2 sequence (Q15858 whole entry): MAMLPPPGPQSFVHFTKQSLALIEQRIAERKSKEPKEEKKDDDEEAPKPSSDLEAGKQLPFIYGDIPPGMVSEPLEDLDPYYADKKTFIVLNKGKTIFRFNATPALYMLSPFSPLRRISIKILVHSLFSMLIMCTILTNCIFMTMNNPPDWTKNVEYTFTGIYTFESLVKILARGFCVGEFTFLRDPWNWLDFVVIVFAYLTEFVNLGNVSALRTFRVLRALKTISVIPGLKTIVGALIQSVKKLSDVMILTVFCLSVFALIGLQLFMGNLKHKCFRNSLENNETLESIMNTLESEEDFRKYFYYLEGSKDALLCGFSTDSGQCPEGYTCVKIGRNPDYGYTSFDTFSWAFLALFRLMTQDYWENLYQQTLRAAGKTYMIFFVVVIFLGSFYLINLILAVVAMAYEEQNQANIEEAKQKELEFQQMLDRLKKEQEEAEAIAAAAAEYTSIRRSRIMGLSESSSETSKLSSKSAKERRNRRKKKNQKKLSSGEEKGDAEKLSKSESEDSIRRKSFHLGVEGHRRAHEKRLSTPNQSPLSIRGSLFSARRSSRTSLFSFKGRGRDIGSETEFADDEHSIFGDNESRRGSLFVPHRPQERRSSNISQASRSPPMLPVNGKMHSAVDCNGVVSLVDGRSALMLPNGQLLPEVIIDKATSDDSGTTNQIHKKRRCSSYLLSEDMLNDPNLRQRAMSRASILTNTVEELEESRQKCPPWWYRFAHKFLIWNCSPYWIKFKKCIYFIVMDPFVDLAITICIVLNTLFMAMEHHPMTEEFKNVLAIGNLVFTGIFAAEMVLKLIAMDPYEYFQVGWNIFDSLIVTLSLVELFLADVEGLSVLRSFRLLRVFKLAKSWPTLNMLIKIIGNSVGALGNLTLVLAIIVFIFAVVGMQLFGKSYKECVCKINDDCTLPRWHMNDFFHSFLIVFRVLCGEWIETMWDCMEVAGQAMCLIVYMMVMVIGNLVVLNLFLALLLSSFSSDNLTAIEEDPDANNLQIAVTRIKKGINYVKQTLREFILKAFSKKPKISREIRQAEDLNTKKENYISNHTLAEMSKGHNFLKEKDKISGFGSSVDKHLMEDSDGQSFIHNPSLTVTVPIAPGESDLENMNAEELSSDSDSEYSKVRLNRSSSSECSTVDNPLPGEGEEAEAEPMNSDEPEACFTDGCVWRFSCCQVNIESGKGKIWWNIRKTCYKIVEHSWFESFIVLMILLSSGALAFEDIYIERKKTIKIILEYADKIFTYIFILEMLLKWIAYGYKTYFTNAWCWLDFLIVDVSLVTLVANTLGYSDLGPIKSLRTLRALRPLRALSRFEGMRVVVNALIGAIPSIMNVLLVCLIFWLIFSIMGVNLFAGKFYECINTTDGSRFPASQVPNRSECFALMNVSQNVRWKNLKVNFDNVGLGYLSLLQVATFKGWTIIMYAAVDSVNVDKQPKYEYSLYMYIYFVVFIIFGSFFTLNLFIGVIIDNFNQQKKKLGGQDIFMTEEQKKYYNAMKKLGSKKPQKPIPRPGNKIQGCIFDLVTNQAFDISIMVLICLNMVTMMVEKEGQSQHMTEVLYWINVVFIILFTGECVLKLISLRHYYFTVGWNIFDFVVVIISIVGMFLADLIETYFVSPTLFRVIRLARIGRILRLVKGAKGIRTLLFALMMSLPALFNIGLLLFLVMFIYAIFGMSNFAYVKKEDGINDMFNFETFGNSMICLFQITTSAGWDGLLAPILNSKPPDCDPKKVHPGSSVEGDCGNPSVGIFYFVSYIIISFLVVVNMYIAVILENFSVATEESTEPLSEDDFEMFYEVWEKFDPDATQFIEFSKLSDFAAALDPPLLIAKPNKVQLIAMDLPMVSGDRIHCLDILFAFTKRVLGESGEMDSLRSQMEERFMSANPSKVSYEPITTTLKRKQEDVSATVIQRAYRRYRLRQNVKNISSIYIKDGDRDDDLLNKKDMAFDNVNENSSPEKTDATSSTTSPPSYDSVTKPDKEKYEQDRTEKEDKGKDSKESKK
Chain of hNav1.5 (Q14524 whole entry): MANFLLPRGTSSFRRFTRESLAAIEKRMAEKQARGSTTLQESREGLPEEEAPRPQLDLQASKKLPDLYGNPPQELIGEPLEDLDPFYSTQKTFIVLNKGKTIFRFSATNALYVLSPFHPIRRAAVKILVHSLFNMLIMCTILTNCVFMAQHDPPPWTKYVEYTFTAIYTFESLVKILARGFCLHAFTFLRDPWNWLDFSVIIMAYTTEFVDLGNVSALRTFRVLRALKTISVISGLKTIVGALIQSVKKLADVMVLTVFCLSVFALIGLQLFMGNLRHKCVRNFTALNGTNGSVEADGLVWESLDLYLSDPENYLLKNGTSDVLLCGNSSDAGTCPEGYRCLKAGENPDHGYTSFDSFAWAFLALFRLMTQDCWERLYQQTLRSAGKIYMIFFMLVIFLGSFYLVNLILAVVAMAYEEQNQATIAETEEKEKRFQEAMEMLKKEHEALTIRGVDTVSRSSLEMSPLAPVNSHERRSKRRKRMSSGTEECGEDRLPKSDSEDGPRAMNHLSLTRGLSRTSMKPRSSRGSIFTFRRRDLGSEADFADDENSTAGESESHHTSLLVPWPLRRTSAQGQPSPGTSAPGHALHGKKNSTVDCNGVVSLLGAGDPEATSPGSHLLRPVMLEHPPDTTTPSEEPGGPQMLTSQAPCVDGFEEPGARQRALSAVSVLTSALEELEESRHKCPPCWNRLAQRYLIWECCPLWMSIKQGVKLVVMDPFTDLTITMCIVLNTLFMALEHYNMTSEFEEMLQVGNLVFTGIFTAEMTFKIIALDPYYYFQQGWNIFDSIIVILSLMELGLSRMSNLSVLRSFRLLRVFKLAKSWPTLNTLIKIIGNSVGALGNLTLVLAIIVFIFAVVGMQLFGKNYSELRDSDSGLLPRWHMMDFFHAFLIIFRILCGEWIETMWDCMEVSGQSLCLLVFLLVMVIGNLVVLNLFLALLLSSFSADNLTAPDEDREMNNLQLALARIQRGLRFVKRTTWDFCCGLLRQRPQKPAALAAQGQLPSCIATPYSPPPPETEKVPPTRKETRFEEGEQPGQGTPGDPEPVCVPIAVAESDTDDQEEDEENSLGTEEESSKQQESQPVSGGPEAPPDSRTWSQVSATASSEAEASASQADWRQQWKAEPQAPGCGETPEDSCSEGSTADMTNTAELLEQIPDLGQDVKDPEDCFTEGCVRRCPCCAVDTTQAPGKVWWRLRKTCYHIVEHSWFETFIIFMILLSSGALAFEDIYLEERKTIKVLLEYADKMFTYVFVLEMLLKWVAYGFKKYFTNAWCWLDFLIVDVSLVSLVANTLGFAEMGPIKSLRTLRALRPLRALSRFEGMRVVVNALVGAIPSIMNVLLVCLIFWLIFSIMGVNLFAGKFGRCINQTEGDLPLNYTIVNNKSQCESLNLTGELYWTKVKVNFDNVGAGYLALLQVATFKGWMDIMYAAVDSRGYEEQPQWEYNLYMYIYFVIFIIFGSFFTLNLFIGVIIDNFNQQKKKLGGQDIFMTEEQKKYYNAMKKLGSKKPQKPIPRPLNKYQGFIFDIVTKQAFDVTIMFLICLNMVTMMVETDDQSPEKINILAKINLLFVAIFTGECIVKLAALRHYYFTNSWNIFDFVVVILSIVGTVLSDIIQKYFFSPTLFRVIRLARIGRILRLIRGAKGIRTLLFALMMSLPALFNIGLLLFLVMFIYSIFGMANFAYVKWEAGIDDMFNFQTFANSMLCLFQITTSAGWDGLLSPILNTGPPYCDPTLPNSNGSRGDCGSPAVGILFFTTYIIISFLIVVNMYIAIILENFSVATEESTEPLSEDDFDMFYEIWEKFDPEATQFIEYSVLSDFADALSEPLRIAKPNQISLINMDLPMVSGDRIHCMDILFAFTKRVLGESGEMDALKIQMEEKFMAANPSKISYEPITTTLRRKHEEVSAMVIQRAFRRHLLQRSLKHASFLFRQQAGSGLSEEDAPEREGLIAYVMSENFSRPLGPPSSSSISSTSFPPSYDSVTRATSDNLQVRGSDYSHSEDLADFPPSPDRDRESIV

In the case of `CC[C@H](C)[C@H](NC(=O)[C@@H](NC(=O)[C@H](CCCCN)NC(=O)[C@H](CCCNC(=N)N)NC(=O)[C@@H]1CSSC[C@@H]2NC(=O)[C@H](C)NC(=O)[C@H](CCCNC(=N)N)NC(=O)[C@H](CCCCN)NC(=O)[C@H](CO)NC(=O)[C@H](CC(=O)O)NC(=O)[C@@H]3CSSC[C@H](NC(=O)[C@H](CCC(=O)O)NC(=O)[C@H](CC(C)C)NC(=O)CNC(=O)[C@H](CCC(=O)O)NC(=O)[C@H](CSSC[C@H](NC(=O)[C@@H](N)Cc4ccc(O)cc4)C(=O)N[C@@H](CCC(N)=O)C(=O)N[C@@H](CCCCN)C(=O)N[C@@H](Cc4c[nH]c5ccccc45)C(=O)N[C@@H](CCSC)C(=O)N[C@@H](Cc4c[nH]c5ccccc45)C(=O)N[C@@H](Cc4cn(CCCOCCOCCOCCOCCOCCOCCOCCOCCOCCOCCN)nn4)C(=O)N3)NC2=O)C(=O)N[C@@H](CCCCN)C(=O)N[C@@H](CC(C)C)C(=O)N[C@@H](Cc2c[nH]c3ccccc23)C(=O)N1)[C@@H](C)CC)C(N)=O` [compound 171], the Nav1.4/Nav1.7 (hNav1.4 [1]) is reported as 1 and the IC50 (hNav1.7 [2]) is reported as at least 5000 nM.
Work on `CC[C@H](C)[C@H](NC(=O)[C@H](CCCCN)NC(=O)[C@H](CCCNC(=N)N)NC(=O)[C@@H]1CSSC[C@@H]2NC(=O)[C@H](C)NC(=O)[C@H](CCCNC(=N)N)NC(=O)[C@H](CCCCN)NC(=O)[C@H](CO)NC(=O)[C@H](CC(=O)O)NC(=O)[C@@H]3CSSC[C@H](NC(=O)[C@H](CCC(=O)O)NC(=O)[C@H](CC(C)C)NC(=O)CNC(=O)[C@H](CCC(=O)O)NC(=O)[C@H](CSSC[C@H](NC(=O)[C@@H](N)Cc4ccc(O)cc4)C(=O)N[C@@H](CCC(N)=O)C(=O)N[C@@H](CCCCN)C(=O)N[C@@H](Cc4c[nH]c5ccccc45)C(=O)N[C@@H](CCSC)C(=O)N[C@@H](Cc4c[nH]c5ccccc45)C(=O)N[C@@H]([C@@H](C)O)C(=O)N3)NC2=O)C(=O)N[C@@H](CCCCN)C(=O)N[C@@H](CC(C)C)C(=O)N[C@@H](Cc2c[nH]c3ccccc23)C(=O)N1)C(=O)N[C@@H](Cc1cn(CCCOCCOCCOCCOCCOCCOCCOCCOCCOCCOCCN)nn1)C(N)=O` [compound 188] yielded a Nav1.4/Nav1.7 (hNav1.4 [1]) of 1 and an IC50 (hNav1.7 [2]) of at least 5000 nM.
Molecule `C#CC[C@H](N)C(=O)NCCOCCOCCOCCOCCOCCOCCOCCOCCOCCOCCOCCOCCC(=O)NCCCC[C@@H]1NC(=O)[C@H](CCCNC(=N)N)NC(=O)[C@H](CCCCN)NC(=O)[C@H](CO)NC(=O)[C@H](CC(=O)O)NC(=O)[C@@H]2CSSC[C@@H]3NC(=O)[C@H](CCC(=O)O)NC(=O)[C@H](CC(C)C)NC(=O)CNC(=O)[C@H](CCC(=O)O)NC(=O)[C@H](CSSC[C@H](NC(=O)[C@@H](N)Cc4ccc(O)cc4)C(=O)N[C@@H](CCC(N)=O)C(=O)N[C@@H](CCCCN)C(=O)N[C@@H](Cc4c[nH]c5ccccc45)C(=O)N[C@@H](CCCC)C(=O)N[C@@H](Cc4c[nH]c5ccccc45)C(=O)N[C@@H]([C@@H](C)O)C(=O)N2)NC(=O)[C@H](CSSC[C@@H](C(=O)N[C@@H](CCCNC(=N)N)C(=O)N[C@@H](CCCCN)C(=O)N[C@H](C(=O)N[C@@H](Cc2c[nH]c4ccccc24)C(N)=O)[C@@H](C)CC)NC(=O)[C@H](Cc2c[nH]c4ccccc24)NC(=O)[C@H](CC(C)C)NC(=O)[C@H](CCCCN)NC3=O)NC1=O` [compound 290] has an IC50 (hNav1.5) of 6100 nM, a Nav1.5/Nav1.7 (hNav1.5) of 12 and an IC50 (hNav1.7 [2]) of 52 nM. For the same molecule, the IC50 (hNav1.7 [3]) was 520 nM, the IC50 (hNav1.4 [4]) was 2730 nM and the Nav1.4/Nav1.7 (hNav1.4 [4]) was 5.
Work on `C#CC[C@H](N)C(=O)NCCOCCOCCOCCOCCC(=O)NCCCC[C@@H]1NC(=O)[C@H](CCCNC(=N)N)NC(=O)[C@H](CCCCN)NC(=O)[C@H](CO)NC(=O)[C@H](CC(=O)O)NC(=O)[C@@H]2CSSC[C@@H]3NC(=O)[C@H](CCC(=O)O)NC(=O)[C@H](CC(C)C)NC(=O)CNC(=O)[C@H](CCC(=O)O)NC(=O)[C@H](CSSC[C@H](NC(=O)[C@@H](N)Cc4ccc(O)cc4)C(=O)N[C@@H](CCC(N)=O)C(=O)N[C@@H](CCCCN)C(=O)N[C@@H](Cc4c[nH]c5ccccc45)C(=O)N[C@@H](CCCC)C(=O)N[C@@H](Cc4c[nH]c5ccccc45)C(=O)N[C@@H]([C@@H](C)O)C(=O)N2)NC(=O)[C@H](CSSC[C@@H](C(=O)N[C@@H](CCCNC(=N)N)C(=O)N[C@@H](CCCCN)C(=O)N[C@H](C(=O)N[C@@H](Cc2c[nH]c4ccccc24)C(N)=O)[C@@H](C)CC)NC(=O)[C@H](Cc2c[nH]c4ccccc24)NC(=O)[C@H](CC(C)C)NC(=O)[C@H](CCCCN)NC3=O)NC1=O` [compound 291] yielded an IC50 (hNav1.5) of 3010 nM, a Nav1.5/Nav1.7 (hNav1.5) of 100 and an IC50 (hNav1.7 [2]) of 28 nM. The IC50 (hNav1.7 [3]) was 30 nM, the IC50 (hNav1.4 [4]) was 1130 nM and the Nav1.4/Nav1.7 (hNav1.4 [4]) was 38.
With `CCCC[C@@H]1NC(=O)[C@H](Cc2c[nH]c3ccccc23)NC(=O)[C@H](CCCCN)NC(=O)[C@H](CCC(N)=O)NC(=O)[C@@H](NC(=O)[C@@H](N)Cc2ccc(O)cc2)CSSC[C@@H]2NC(=O)[C@@H]3CSSC[C@@H](C(=O)N[C@@H](CCCNC(=N)N)C(=O)N[C@@H](CCCCN)C(=O)N[C@H](C(=O)N[C@@H](Cc4c[nH]c5ccccc45)C(N)=O)[C@@H](C)CC)NC(=O)[C@H](Cc4c[nH]c5ccccc45)NC(=O)[C@H](CC(C)C)NC(=O)[C@H](CCCCN)NC(=O)[C@H](CSSC[C@H](NC(=O)[C@H]([C@@H](C)O)NC(=O)[C@H](Cc4c[nH]c5ccccc45)NC1=O)C(=O)N[C@@H](CC(=O)O)C(=O)N[C@@H](CO)C(=O)N[C@@H](CCCCN)C(=O)N[C@@H](CCCNC(=N)N)C(=O)N[C@@H](C)C(=O)N3)NC(=O)[C@H](CCC(=O)O)NC(=O)[C@H](CC(C)C)NC(=O)CNC(=O)[C@H](CCC(=O)O)NC2=O` [compound 294] the IC50 (hNav1.7 [2]) was 24 nM.
Molecule `C#CC[C@H](N)C(=O)N[C@@H](Cc1ccc(O)cc1)C(=O)N[C@H]1CSSC[C@@H]2NC(=O)[C@@H]3CSSC[C@@H](C(=O)N[C@@H](CCCNC(=N)N)C(=O)N[C@@H](CCCCN)C(=O)N[C@H](C(=O)N[C@@H](Cc4c[nH]c5ccccc45)C(N)=O)[C@@H](C)CC)NC(=O)[C@H](Cc4c[nH]c5ccccc45)NC(=O)[C@H](CC(C)C)NC(=O)[C@H](CCCCN)NC(=O)[C@H](CSSC[C@H](NC(=O)[C@H]([C@@H](C)O)NC(=O)[C@H](Cc4c[nH]c5ccccc45)NC(=O)[C@H](CCSC)NC(=O)[C@H](Cc4c[nH]c5ccccc45)NC(=O)[C@H](CCCCN)NC(=O)[C@H](CCC(N)=O)NC1=O)C(=O)N[C@@H](CC(=O)O)C(=O)N[C@@H](CO)C(=O)N[C@@H](CCCCN)C(=O)N[C@@H](CCCNC(=N)N)C(=O)N[C@@H](C)C(=O)N3)NC(=O)[C@H](CCC(=O)O)NC(=O)[C@H](CC(C)C)NC(=O)CNC(=O)[C@H](CCC(=O)O)NC2=O` [compound 295] has an IC50 (hNav1.7 [2]) of 18 nM.
With `C#CC[C@H](N)C(=O)N[C@@H](Cc1ccc(O)cc1)C(=O)N[C@H]1CSSC[C@@H]2NC(=O)[C@@H]3CSSC[C@@H](C(=O)N[C@@H](CCCNC(=N)N)C(=O)N[C@@H](CCCCN)C(=O)N[C@H](C(=O)N[C@@H](Cc4c[nH]c5ccccc45)C(N)=O)[C@@H](C)CC)NC(=O)[C@H](Cc4c[nH]c5ccccc45)NC(=O)[C@H](CC(C)C)NC(=O)[C@H](CCCCN)NC(=O)[C@H](CSSC[C@H](NC(=O)[C@H]([C@@H](C)O)NC(=O)[C@H](Cc4c[nH]c5ccccc45)NC(=O)[C@H](CCCC)NC(=O)[C@H](Cc4c[nH]c5ccccc45)NC(=O)[C@H](CCCCN)NC(=O)[C@H](CCC(N)=O)NC1=O)C(=O)N[C@@H](CC(=O)O)C(=O)N[C@@H](CO)C(=O)N[C@@H](CCCCN)C(=O)N[C@@H](CCCNC(=N)N)C(=O)N[C@@H](C)C(=O)N3)NC(=O)[C@H](CCCNC(=N)N)NC(=O)[C@H](CC(C)C)NC(=O)CNC(=O)[C@H](CCC(=O)O)NC2=O` [compound 296] the IC50 (hNav1.7 [2]) was 19 nM.
Molecule `C#CC[C@H](N)C(=O)N[C@@H](Cc1ccc(O)cc1)C(=O)N[C@H]1CSSC[C@@H]2NC(=O)[C@@H]3CSSC[C@@H](C(=O)N[C@@H](CCCNC(=N)N)C(=O)N[C@@H](CCCCN)C(=O)N[C@H](C(=O)N[C@@H](Cc4ccccc4)C(N)=O)[C@@H](C)CC)NC(=O)[C@H](Cc4c[nH]c5ccccc45)NC(=O)[C@H](CC(C)C)NC(=O)[C@H](CCCCN)NC(=O)[C@H](CSSC[C@H](NC(=O)[C@H]([C@@H](C)O)NC(=O)[C@H](Cc4c[nH]c5ccccc45)NC(=O)[C@H](CCCC)NC(=O)[C@H](Cc4c[nH]c5ccccc45)NC(=O)[C@H](CCCCN)NC(=O)[C@H](CCC(N)=O)NC1=O)C(=O)N[C@@H](CC(=O)O)C(=O)N[C@@H](CO)C(=O)N[C@@H](CCCCN)C(=O)N[C@@H](CCCNC(=N)N)C(=O)N[C@@H](C)C(=O)N3)NC(=O)[C@H](CCC(=O)O)NC(=O)[C@H](CC(C)C)NC(=O)CNC(=O)[C@H](CCC(=O)O)NC2=O` [compound 301] has an IC50 (hNav1.7 [2]) of 35 nM.
In the case of `CCCC[C@@H]1NC(=O)[C@H](Cc2c[nH]c3ccccc23)NC(=O)[C@H](CCCCN)NC(=O)[C@H](CCC(N)=O)NC(=O)[C@@H](NC(=O)[C@@H](N)Cc2ccc(O)cc2)CSSC[C@@H]2NC(=O)[C@@H]3CSSC[C@@H](C(=O)N[C@@H](CCCNC(=N)N)C(=O)N[C@@H](CCCCN)C(=O)N[C@@H](Cc4ccc(O)cc4)C(=O)N[C@H](C(N)=O)[C@@H](C)CC)NC(=O)[C@H](Cc4c[nH]c5ccccc45)NC(=O)[C@H](CC(C)C)NC(=O)[C@H](CCCCN)NC(=O)[C@H](CSSC[C@H](NC(=O)[C@H]([C@@H](C)O)NC(=O)[C@H](Cc4c[nH]c5ccccc45)NC1=O)C(=O)N[C@@H](CC(=O)O)C(=O)N[C@@H](CO)C(=O)N[C@@H](CCCCN)C(=O)N[C@@H](CCCNC(=N)N)C(=O)N[C@@H](C)C(=O)N3)NC(=O)[C@H](CCC(=O)O)NC(=O)[C@H](CC(C)C)NC(=O)CNC(=O)[C@H](CCCCN=[N+]=[N-])NC2=O` [compound 322], the IC50 (hNav1.7 [2]) is reported as 67 nM.
